Literature values as cited in patent publication US20050208119A1, “Encapsulated oral chelating preparations” (priority 2004, published 2005).

Conditions: oral administration

Compound: O=C(O)CN(CCN(CC(=O)O)CC(=O)O)CC(=O)O [EDTA, ethylene-diaminetetraacetic acid]
- fraction absorbed when administered by mouth (general consensus): about five
- unabsorbed fraction that remains within the digestive tract (reported): 95%
